Assay results published in patent US12414974B2, “Materials and methods for treating cancer” (priority 2017, dated 2025).

System: GBM39 cells
Assay: MV growth kinetics (virus production, titration on Vero cells)
Type: cell-based, human
Method: MV strains and virus propagation. Generation and characterization of MV strains expressing human iodide symporter (MV-NIS), human carcinoembryonic antigen (MV-CEA) and green fluorescent protein (MV-GFP) has been described elsewhere (see, e.g., Dingli et al. 2004 Blood 103:1641-1646; Peng et al. 2002 Cancer Res 62:4656-4662; Duprex et al. 1999 J Virol 73:9568-9575). Viruses were propagated on Vero cells and viral stocks were prepared by repeated freezing-thawing and stored frozen at −80° C. MV titers were determined in tissue culture infectious doses 50% (TCID50) per ml by titration on Vero cells described elsewhere (see, e.g., Iankov et al. 2009 Mol Ther 17:1395-1403). High grade purified viral stocks from supernatant released viruses were prepared as described elsewhere (see, e.g., Langfield et al. 2011 Methods Mol Biol 737:345-366).
MV growth kinetics. Growth kinetics of MV in primary GBM cells was determined by titration on Vero cells for the cell-associated virus at different time points post infection with MV-NIS. Briefly, the 4×10^5 cells were inoculated at a MOI of 0.1 with MV-NIS and incubated in 6-well cell culture plates (Falcon). […] Wells positive for syncytia were counted at 72 hours and virus titers were calculated as described above. […]

SMILES: N#CC[C@H](C1CCCC1)n1cc(-c2ncnc3[nH]ccc23)cn1 [Jakafi, Ruxolitinib]
- increase of MV-NIS virus production vs control (GBM39, 3 μM for 48 hours prior to infection, MV-NIS MOI 0.1, 96 hours): ~1000 fold
- time of addition still sufficient to restore MV production (GBM39, 3 μM, MV MOI 0.1, virus production 48 hours post-infection): up to 12 hours post-infection
